The source of these data is paper PMC5465209 (Scientific Reports, 2017).

Data set [1] relates to GFP-NFAT-1 in HEK293 cells. Nature of the data set: Inhibition of GFP-NFAT-1 nuclear translocation. The data set is classed as cell-based. The following applies: 1 μM FK506 for 2 h, then 500 nM ionomycin 15 min; transfected HEK 293 cells; five independent experiments. Here is the method:
HEK293 cells (ATCC) were plated onto glass cover slips in 35-mm culture dishes. GFP-NFAT-1 plasmid[6] was transfected with Lipofectamine 2000 (ThermoFisher Scientific K.K., Yokohama, Japan). […] The nuclear fluorescence intensity was quantified using a Fluoview device (Olympus, Tokyo, Japan) and measured with AquaCosmos software (Hamamatsu Photonics). The fluorescent intensity of 10 cells was counted; five sets of experiments were conducted. Background fluorescent intensity was subtracted from all experiments.

The test system of data set [2] is IL-2 protein in Jurkat cells. Nature of the data set: Inhibition of the production of IL-2 (ELISA of supernatant). The conditions noted are these: 100 nM FK506, then PMA and ionomycin 12 h. The data set is classed as cell-based, human. The procedure:
Jurkat cells (1 × 10^5) were treated with medium containing peptides or FK506, then incubated with the same amount of medium containing 200 nM PMA (Sigma-Aldrich) and 4 μM ionomycin for an additional 12 h. IL-2 protein was detected in the supernatant of cells using an ELISA kit according to the manufacturer’s instructions (eBioscience, San Diego, CA, USA).

The next data set relates to βTC6 cells. Put plainly: Insulin secretion in βTC6 cells (mouse insulin ELISA). In kind it is cell-based. The conditions noted are these: FK506 0.01, 0.1 and 1 μM for 97 h, p < 0.05 for 0.01 μM, p < 0.01 for 0.1 and 1 μM, dose-dependent. Here is the method:
(§1) After 48, 96, or 144 hours, fresh medium was added; the samples taken to investigate the release of insulin were taken 1 hour later and assayed with a mouse insulin ELISA kit (Shibayagi, Shibukawa, Gunma, Japan).

Data set [3] deals with isolated islets from BALB/c mice. Nature of the data set: Insulin secretion in isolated islets (mouse insulin ELISA). In kind it is cell-based. The conditions noted are these: FK506 0.01, 0.1 and 1 μM for 97 h, p < 0.05 for 0.01 μM, p < 0.01 for 0.1 and 1 μM, dose-dependent. Here is the method:
as §1

In a further data set the test system is secretion of insulin. The conditions noted are these: cited from earlier work. The text has this:
An important mechanism whereby calcineurin promotes the activation of T cells and the induction of cytokine-related genes is largely attributed to a family of transcriptional regulators that are referred to as NFAT. The immunosuppressants cyclosporine A and FK506, which are used clinically to prevent transplant rejection, inhibit the activity of calcineurin phosphatase on all its protein substrates, including NFAT[1], [2].

As for `C=CC[C@@H]1/C=C(\C)C[C@H](C)C[C@H](OC)[C@H]2O[C@@](O)(C(=O)C(=O)N3CCCC[C@H]3C(=O)O[C@H](/C(C)=C/[C@@H]3CC[C@@H](O)[C@H](OC)C3)[C@H](C)[C@@H](O)CC1=O)[C@H](C)C[C@@H]2OC` [FK506], the “Ionomycin-induced GFP-NFAT-1 nuclear translocation” value in data set [1] is given as “strong inhibition”. Also, the “Production of IL-2” value in data set [2] is given as “completely inhibited”. Besides, the Insulin secretion entry (in the data set on βTC6 cells; in data set [3]) was “significantly inhibited” each time. The Secretion of insulin result in the data set on secretion of insulin is “dose-dependent decrease”.
